From paper PMC8505397, “Development of peptides targeting receptor binding site of the envelope glycoprotein to contain the West Nile virus infection” (Scientific Reports, 2021)

Target: T1, interaction between rDIII and ~ 15 kDa receptor of hBMECs (West Nile virus, UniProt P06935)
T1 construct: rDIII – recombinant domain III; made in house; host or cells: E. coli M15
T1 sequence (P06935 584-692 limits assumed): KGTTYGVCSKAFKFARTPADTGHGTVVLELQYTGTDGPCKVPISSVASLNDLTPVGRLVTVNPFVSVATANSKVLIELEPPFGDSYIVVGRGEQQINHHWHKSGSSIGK
Experiment: Blocking of interaction between rDIII and proteins of hBMECs by peptides (Western blot)
Format: binding, West Nile virus / human
Details: 2.5 µg (0.19 nM) rDIII pre-incubated with tenfold molar excess (1.9 nM) of peptide
Experimental: First, concentration-dependent ELISA and Western blot were performed to get the minimum concentration of rDIII required to show its interaction with hBMECs proteins. Details are presented in Supplementary Method S12 and Supplementary Method S13. Subsequently, the ability of 7-mer and 12-mer peptides to block the interaction between rDIII and proteins of hBMECs was tested. A tenfold molar excess of peptides was incubated with rDIII for 1 h at room temperature. Such pre-incubated rDIII was subsequently used in the assays. Details of both methods are described in Supplementary Method S12 and Supplementary Method S13. […]
Blocking of interaction between rDIII and proteins of hBMECs by peptides (Western blot).
Two hundred micrograms of proteins extracted from hBMECs were separated on 2-well PAGE […]
gel (12% polyacrylamide gel) and transferred on 0.45 μm nitrocellulose membrane (Amersham Protran; GE Healthcare) for 1 h at 30 V. Details of LDS-PAGE are described in Supplementary Methods S7. The membrane was cut horizontally to obtain proteins of molecular weight between ~10 kDa to ~25 kDa. Subsequently, this membrane was sliced vertically to obtain 0.3 cm strips, which were then used in Western blot (Supplementary Fig.
The NC strips with transblotted hBMECs proteins were first incubated with rDIII at various concentrations to find out the minimal concentration of rDIII required to detect the interaction with hBMECs proteins. Non-specific binding sites were blocked with 1% BSA in 0.05% TBST (pH 7.2) for 1 h at room temperature and constant shaking followed by a washing step for 5 min with 0.05% TBST. The NC strips were incubated with rDIII at different concentrations (5 µg, 2.5 µg, 2 µg, 1 µg, 500 ng) diluted in 1 mL of 0.05% TBST for 3 h at room temperature and constant shaking. After 3 washings with 0.05% TBST, strips were incubated with HisProbe-HRP conjugate (1:5,000 dilution in 0.1% BSA in 0.05% TBST; Thermo Fisher Scientific) for 30 min at room temperature. Six washings, each of 5 min were performed before incubating the strips in SuperSignal chemiluminescence substrate (Thermo Fisher Scientific). The signal was captured on the C-DiGit Blot Scanner (Odyssey CLx, LI-COR Biosciences). For negative control, rDIII was excluded from the above-mentioned protocol.
To block the interaction, the NC strips were blocked as described above.
Simultaneously, 2.5 µg (0.19 nM) of rDIII were pre-incubated with 2.75 µg of each peptide (10-fold molar excess; 1.9 nM) in TBS for 1 h at room temperature. Further on, strips were incubated with pre-incubated rDIII for 3 h at room temperature with constant shaking. After 3 washings with 0.05% TBST, strips were incubated with HisProbe-HRP conjugate as described above. […]

CC[C@H](C)[C@@H]1NC(=O)[C@@H](NC(=O)[C@H](C)N)CSSC[C@@H](C(=O)NCC(=O)NCC(=O)NCC(=O)N[C@@H](CO)C(=O)O)NC(=O)[C@H](C)NC(=O)[C@H](CCCNC(=N)N)NC(=O)[C@H]([C@@H](C)O)NC(=O)[C@H](CO)NC(=O)[C@H](CO)NC(=O)[C@H](Cc2c[nH]cn2)NC1=O [CP4, CIHSSTRAC]
inhibition of the interaction between rDIII and ~ 15 kDa hBMECs receptor (Western blot): inhibition of the interaction was confirmed
